{"source": "ChEMBL document CHEMBL1201862", "about": "“PubChem BioAssay data set” (2004)", "target": "Envelope glycoprotein gp160 (Human immunodeficiency virus 1, UniProt Q6QLK5)", "sequence (Q6QLK5 whole entry, the tested form may be a part)": "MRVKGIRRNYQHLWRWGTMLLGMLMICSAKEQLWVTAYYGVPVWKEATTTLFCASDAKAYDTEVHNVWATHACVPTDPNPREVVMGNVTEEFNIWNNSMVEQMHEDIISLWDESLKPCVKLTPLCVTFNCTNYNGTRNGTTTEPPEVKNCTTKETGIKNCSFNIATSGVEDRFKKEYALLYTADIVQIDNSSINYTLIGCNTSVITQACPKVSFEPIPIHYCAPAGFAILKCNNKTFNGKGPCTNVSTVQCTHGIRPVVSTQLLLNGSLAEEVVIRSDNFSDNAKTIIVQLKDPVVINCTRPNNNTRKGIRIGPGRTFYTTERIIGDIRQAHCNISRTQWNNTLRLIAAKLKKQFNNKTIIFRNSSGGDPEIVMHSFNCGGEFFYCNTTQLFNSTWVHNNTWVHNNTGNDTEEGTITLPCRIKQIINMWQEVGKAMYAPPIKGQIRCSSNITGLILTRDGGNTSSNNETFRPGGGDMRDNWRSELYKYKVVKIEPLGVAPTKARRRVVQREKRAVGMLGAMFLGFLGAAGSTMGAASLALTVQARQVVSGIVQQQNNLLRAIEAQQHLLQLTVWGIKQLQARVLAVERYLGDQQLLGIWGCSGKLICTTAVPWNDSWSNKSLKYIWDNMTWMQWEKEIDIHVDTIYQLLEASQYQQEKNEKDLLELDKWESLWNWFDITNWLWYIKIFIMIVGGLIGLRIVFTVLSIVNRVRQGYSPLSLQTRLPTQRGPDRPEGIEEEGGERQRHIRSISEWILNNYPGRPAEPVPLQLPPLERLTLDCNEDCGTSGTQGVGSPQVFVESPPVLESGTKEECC", "assay": "inhibitors of HIV fusion peptide binding, primary screen, biochemical, uHTS, fluorescence dequenching (AID 1986)", "note": "Calls of active or inactive are those of the source. No stated cut-off is given here; in the data, actives have a measured IC50 and inactives only a lower limit."}
{"compound": "CCCOc1ccc(C2C(C(=O)c3cc4ccccc4o3)=C(O)C(=O)N2c2cc(C)on2)cc1", "note": "(configuration not stated)", "values": [{"measurement": "IC50", "result": "16.5 µM (active)"}]}
{"compound": "COc1ccc(/C=N/NC(=O)c2[nH]c3ccc(Br)cc3c2-c2ccccc2)c(C(=O)O)c1OC", "values": [{"measurement": "IC50", "result": "19.4 µM (active)"}]}
